{"source": "patent US20100190713A1", "about": "“USE OF THE PEPTIDE THYMOSIN BETA 4 ALONE OR IN COMBINATION WITH CECROPIN A AS A THERAPEUTIC AGENT” (priority 2007, published 2010)", "key": {"[1]": {"test_system": "RAW 264.7 (Mouse leukaemic monocyte macrophage cell line) cells", "experiment": "Phagocytosis assay (Fluorescein-labeled Escherichia coli, flow cytometry)", "assay_type": "cell-based", "conditions": "10 micrograms per ml", "method": "RAW 264.7 (Mouse leukaemic monocyte macrophage cell line) cells were obtained from ATCC and grown in RPMI 1640 medium containing 10% FBS. Cells were incubated in 12×75 mm tubes at 37° C. with test peptides—10 micrograms per ml—for 30 min prior to adding Fluorescein-labeled Escherichia coli bacteria as the agent to be ingested. After the cells were incubated for additional 60 min at 37° C. and allowed to ingest the Fluorescein-labeled Escherichia coli bacteria, cells were fixed with 1% paraformaldehyde. The samples were then analyzed by flow cytometry to determine the amount of phagocytosis as a function of brightness (the greater the phagocytic activity, the more fluorescence in the macrophage population). Data are reported as % positive and the mean fluorescence intensity (MFI) of positively stained cells."}, "murine spleen cells": {"test_system": "murine spleen cells", "experiment": "Th1/Th2 cytokine profiling assay (Ovalbumin-restimulated spleen cells, CBA kit)", "assay_type": "cell-based, Balb/c mice", "conditions": "10 micrograms per ml, 72 hours"}, "[2]": {"test_system": "Primary Human endothelial cells (HUVEC)", "experiment": "Endothelial cell migration assay", "assay_type": "cell-based", "conditions": "10 micrograms per ml, 22 hours", "method": "Thereafter, designated concentration of testing peptides—10 micrograms per ml—was added in duplicate wells."}, "[3]": {"test_system": "hepatitis B virus (HBV) ayw strain", "experiment": "HBV experimental assay system, HepG2-2.2.15, secreted HBV DNA by TaqMan PCR", "assay_type": "cell-based", "conditions": "10 micrograms per ml; HepG2-2.2.15, six days"}, "HCMV strain AD169": {"test_system": "HCMV strain AD169", "experiment": "HCMV plaque formation assay in MRC-5 cells", "assay_type": "cell-based", "conditions": "10 micrograms per ml, 7-10 days", "description": "Ganciclovir was used as positive control."}, "HUVEC": {"test_system": "HUVEC", "experiment": "Endothelial tube formation assay", "assay_type": "cell-based, human", "conditions": "10 micrograms per ml, 20 hours", "description": "Positive control wes vehicle only."}}, "note": "Where no end group is shown, it is not given here.", "data": [{"substance": "Lys-Trp-Lys-Leu-Phe-Lys-Lys-Ile-Glu-Lys-Val-Gly-Gln-Asn-Ile-Arg-Asp-Gly-Ile-Ile-Lys-Ala-Gly-Pro-Ala-Val-Ala-Val-Val-Gly-Gln-Ala-Thr-Gln-Ile-Ala-Lys-NH2 (KWKLFKKIEKVGQNIRDGIIKAGPAVAVVGQATQIAK-NH2) [Peptide 2]", "values": [{"measurement": "induction of phagocytosis as compared to the virus control experiment", "setting": "[1]", "value": "did not induce phagocytosis"}, {"measurement": "production of IFN-γ (decreased by)", "setting": "murine spleen cells", "value": 65.6, "unit": "%"}, {"measurement": "production of IL-2 (decreased by)", "setting": "murine spleen cells", "value": 42.7, "unit": "%"}, {"measurement": "production of IL-4 (induced by)", "setting": "murine spleen cells", "value": "did not significantly change"}, {"measurement": "production of IL-5 (decreased by)", "setting": "murine spleen cells", "value": 37.0, "unit": "%"}, {"measurement": "production of TNF-alpha (change)", "setting": "murine spleen cells", "value": "did not significantly change"}, {"measurement": "inhibition of the migration of human endothelial cells", "setting": "[2]", "value": 15, "unit": "%"}, {"measurement": "inhibition of HBV replication as compared to the virus control infection", "setting": "[3]", "value": 10.5, "unit": "%"}, {"measurement": "inhibition of HCMV plaque formation as compared to the virus control experiment", "setting": "HCMV strain AD169", "value": 2.1, "unit": "%"}, {"measurement": "inhibition of the tube formation of human endothelial cells", "setting": "HUVEC", "value": 10, "unit": "%"}]}, {"substance": "Ac-Ser-Asp-Lys-Pro-Asp-Met-Ala-Glu-Ile-Glu-Lys-Phe-Asp-Lys-Ser-Lys-Leu-Lys-Lys-Thr-Glu-Thr-Gln-Glu-Lys-Asn-Pro-Leu-Pro-Ser-Lys-Glu-Thr-Ile-Glu-Gln-Glu-Lys-Gln-Ala-Gly-Glu-Ser-OH (SDKPDMAEIEKFDKSKLKKTETQEKNPLPSKETIEQEKQAGES; printed: Ser-Asp-Lys-Pro-Asp-Met-Ala-Glu-Ile-Glu-Lys-Phe-Asp-Lys-Ser-Lys-Leu-Lys-Lys-Thr-Glu-Thr-Gln-Glu-Lys-Asn-Pro-Leu-Pro-Ser-Lys-Glu-Thr-Ile-Glu-Gln-Glu-Lys-Gln-Ala-Gly-Glu-Ser-) [Peptide 1]", "values": [{"measurement": "induction of phagocytosis as compared to the virus control experiment", "setting": "[1]", "value": 45.7, "unit": "%"}, {"measurement": "production of IFN-γ (decreased by)", "setting": "murine spleen cells", "value": 52.7, "unit": "%"}, {"measurement": "production of IL-2 (decreased by)", "setting": "murine spleen cells", "value": "did not significantly change"}, {"measurement": "production of IL-4 (induced by)", "setting": "murine spleen cells", "value": 31.6, "unit": "%"}, {"measurement": "production of IL-5 (decreased by)", "setting": "murine spleen cells", "value": "did not significantly change"}, {"measurement": "production of TNF-alpha (change)", "setting": "murine spleen cells", "value": "did not significantly change"}, {"measurement": "inhibition of HBV replication as compared to the virus control infection", "setting": "[3]", "value": "no effect"}]}]}
